Measured values from ChEMBL document CHEMBL5523679, “Discovery of 1,2,3-triazole incorporated indole-piperazines as potent antitubercular agents: Design, synthesis, in vitro biological evaluation, molecular docking and ADME studies” (Bioorg Med Chem, 2024).
≈ marks a conversion by molar mass, not a printed value.

What was measured:
[1] = tested on: Staphylococcus aureus; assay: Antibacterial activity against Staphylococcus aureus assessed as inhibition zone at 25 ug/ml by diffusion method; assay type: functional; conditions: read-out: IZ
[2] = tested on: Escherichia coli; assay: Antibacterial activity against Escherichia coli assessed as inhibition zone at 50 ug/ml by diffusion method; assay type: functional; conditions: read-out: IZ
[3] = Cytotoxicity against African green monkey Vero cells measured after 72 hrs by MTT assay; assay type: toxicity, cell-based; conditions: chlorocebus sabaeus
[4] = Cytotoxicity against African green monkey Vero cells assessed as inhibition of cell growth at 6.25 ug/ml measured after 72 hrs by MTT assay relative to control; assay type: toxicity, cell-based; conditions: chlorocebus sabaeus, at 6.25 µg/mL
[5] = tested on: Pseudomonas aeruginosa; assay: Antibacterial activity against Pseudomonas aeruginosa assessed as inhibition zone at 75 ug/ml by diffusion method; assay type: functional; conditions: read-out: IZ
[6] = tested on: Staphylococcus aureus; assay: Antibacterial activity against Staphylococcus aureus assessed as inhibition zone at 75 ug/ml by diffusion method; assay type: functional; conditions: read-out: IZ
[7] = tested on: Escherichia coli; assay: Antibacterial activity against Escherichia coli assessed as inhibition zone at 75 ug/ml by diffusion method; assay type: functional; conditions: read-out: IZ
[8] = tested on: Pseudomonas aeruginosa; assay: Antibacterial activity against Pseudomonas aeruginosa assessed as inhibition zone at 50 ug/ml by diffusion method; assay type: functional; conditions: read-out: IZ
[9] = Selectivity index, ratio of CC50 for African green monkey Vero cells to MIC for Mycobacterium tuberculosis H37Rv; assay type: toxicity; conditions: read-out: Selectivity Index
[10] = tested on: Mycobacterium tuberculosis; assay: Antimycobacterial activity against Mycobacterium tuberculosis H37Rv assessed as bacterial growth inhibition by microplate Alamar blue assay; assay type: functional
[11] = tested on: Staphylococcus aureus; assay: Antibacterial activity against Staphylococcus aureus assessed as inhibition zone at 50 ug/ml by diffusion method; assay type: functional; conditions: read-out: IZ
[12] = tested on: Escherichia coli; assay: Antibacterial activity against Escherichia coli assessed as inhibition zone at 25 ug/ml by diffusion method; assay type: functional; conditions: read-out: IZ

SMILES | zone of inhibition at 25 µg/mL [1] [mm] | zone of inhibition at 50 µg/mL [2] [mm] | CC50 at 72 h [3] [µg/mL] | inhibition at 72 h, 6.25 ug/ml [4] [%] | zone of inhibition at 75 µg/mL [5] [mm] | zone of inhibition at 75 µg/mL [6] [mm] | zone of inhibition at 75 µg/mL [7] [mm] | zone of inhibition at 50 µg/mL [8] [mm] | selectivity ratio [9] | MIC [10] [µM] | zone of inhibition at 50 µg/mL [11] [mm] | zone of inhibition at 25 µg/mL [12] [mm]
O=C(Cc1cn(Cc2ccc(F)cc2)c2ccccc12)N1CCN(C(=O)c2ccc(F)cc2)CC1 | 15 | 15 | 448 (≈ 946 µM) | 33.8 | 13 | 21 | 18 | 10 | 71.7 | 13.2 | 18 | 
O=C(CCc1cn(Cc2cn(Cc3ccc(F)cc3)nn2)c2ccccc12)N1CCN(S(=O)(=O)c2ccc([N+](=O)[O-])cc2)CC1 | 6 | 18 |  |  | 12 | 20 | 20 | 10 |  | 39.6 | 12 | 15
O=C(CCc1cn(Cc2ccc(F)cc2)c2ccccc12)N1CCN(C(=O)c2ccc(Cl)cc2)CC1 | 13 | 15 | 385 (≈ 764 µM) | 36.4 | 13 | 23 | 18 | 10 | 61.6 | 12.4 | 19 | 
O=C(CCc1c[nH]c2ccccc12)N1CCN(S(=O)(=O)c2ccccc2)CC1 | 12 | 12 |  |  | 15 | 20 | 15 | 10 |  | > 120 | 15 | 10
O=C(Cc1c[nH]c2ccccc12)N1CCN(C(=O)c2ccccc2)CC1 | 10 | 9 |  |  | 13 | 15 | 12 | 9 |  | > 120 | 12 | 6
